In US20260207578A1, “COMPOUND BASED ON SULFUR/OXYGEN SUBSTITUTED GLUTARIMIDE-BASED ISOINDOLINONE SKELETON AND USE THEREOF” (Gluetacs Therapeutics (Shanghai) Co., LTD., priority 2022, published 2026):

Assays:
Wee1 = biological target: T1, Wee1 (Homo sapiens, UniProt P30291+Q96SW2); test: Western-blot assay, substrate protein in hPBMCs; assay type: cell-based; conditions: hPBMC cells, 24 hours, tested at 50 nM and 500 nM, table does not say which
T1 construct: endogenous in cells; host or cells: human PBMCs (Milecell Biotechnologies)
Procedure, shortened: (§1)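 Steps: treat hPBMCs 24 h; lyse on ice in RIPA with phosphatase inhibitors; quantify protein by BCA; denature at 95 °C and blot. Remaining protein (%) is the target/internal-control band ratio, normalised; degradation rate is its complement.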

GSPT1 = biological target: T2, GSPT1 (Homo sapiens, UniProt P15170+Q96SW2); test: Western-blot assay, substrate protein in hPBMCs; assay type: cell-based; conditions: hPBMC cells, 24 hours, tested at 50 nM and 500 nM, table does not say which
T2 construct: endogenous in cells; host or cells: human PBMCs (Milecell Biotechnologies)
Procedure, shortened: as §1

CK1α = biological target: T3, CK1α (Homo sapiens, UniProt P48729+Q96SW2); test: Western-blot assay, substrate protein in hPBMCs; assay type: cell-based; conditions: hPBMC cells, 24 hours, tested at 50 nM and 500 nM, table does not say which
T3 construct: endogenous in cells; host or cells: human PBMCs (Milecell Biotechnologies)
Procedure, shortened: as §1

IKZF1 = biological target: T4, IKZF1 (Homo sapiens, UniProt Q13422+Q96SW2); test: Western-blot assay, substrate protein in hPBMCs; assay type: cell-based; conditions: hPBMC cells, 24 hours, tested at 50 nM and 500 nM, table does not say which
T4 construct: endogenous in cells; host or cells: human PBMCs (Milecell Biotechnologies)
Procedure: (§2) The effect of the compounds of the present disclosure on the expression of target proteins in cells was detected using conventional Western blot analysis.
(§3) Human peripheral blood mononuclear cells (hPBMCs) at a density of 1×10^6 cells/mL were thawed according to the PBMC Recovery Protocol (Milecell Biotechnologies Inc, Shanghai). The cells were then treated with the compounds of the present disclosure (including the compounds listed in Tables 1 and 2, and the Examples A1-A20 and 1-116 compounds) at concentrations of 50 nM and 500 nM.
(§4) Controls included a negative control (DMSO) and a positive control (the commercial immunomodulatory drug lenalidomide), both processed following the identical experimental protocol as the compounds of the present disclosure. After 24 hours of compounds treatment, cells were harvested and lysed in RIPA protein lysate containing phosphatase inhibitors on ice for 30-60 min, followed by centrifugation. The supernatant was aspirated as the extracted total cell protein. The protein concentration of the supernatant was determined using the conventional BCA (Bicinchoninic Acid) assay. The supernatant was then mixed with 4× SDS sample loading buffer, denatured at 95° C. for 5 minutes, and then subjected to SDS-PAGE electrophoresis on a polyacrylamide gel. Proteins were then transferred to a nitrocellulose (NC) membrane, blocked at room temperature for 1-2 h, and processed for antibody incubation and detection according to the manufacturer's instructions (Cell Signaling Technology).
(§5) Half-Maximal Degradation Concentration value (the drug concentration required for degrading proteins by 50%, abbreviated as DC50) reads method: comparing the grayscale values of Western blot bands from drug-treated samples with those from blank DMSO-treated controls, and identifying the drug concentration range at which the grayscale value is half that of the DMSO-treated control bands.
(§6) DC50 values can be calculated using ImageJ software to measure grayscale values of Western blot bands from drug-treated samples. The concentration-response curve is fitted to estimate the drug concentration corresponding to half the grayscale value.
(§7) Target protein remaining (%) refers to the percentage of target protein remaining in hPBMC cells after treatment with protein degrader compounds.
(§8) Calculation method for protein remaining (%): Use ImageJ software to measure grayscale values of Western blot bands from drug (protein degrader)-treated samples. The grayscale value of drug-treated bands is divided by that of internal control protein bands, and the resulting quotient is normalized to obtain the relative percentage of remaining target protein after protein degrader treatment.
(§9) Target protein degradation rate (%)=100%−target protein remaining (%).

[1] = biological target: T5, human Cereblon WT GST-tagged protein (Homo sapiens, UniProt Q96SW2); test: CRBN-binding affinity, HTRF (CEREBLON BINDING kit); conditions: displacement of Thalidomide-Re reagent, 3 hours at room temperature
T5 construct: purchased CISBIO 64BDCRBNPEH
Procedure, shortened: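 HTRF competition format: compound, GST-tagged wild-type human Cereblon, Thalidomide-Re tracer and GST Eu antibody were combined in PROTAC binding buffer. Binding was derived from emission at 620 nm relative to blank and solvent control wells.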

IKZF2 = biological target: T6, IKZF2 (Homo sapiens, UniProt Q96SW2+Q9UKS7); test: Western-blot assay, substrate protein in hPBMCs; assay type: cell-based; conditions: hPBMC cells, 24 hours, tested at 50 nM and 500 nM, table does not say which
T6 construct: endogenous in cells; host or cells: human PBMCs (Milecell Biotechnologies)
Procedure, shortened: as §1

IKZF3 = biological target: T7, IKZF3 (Homo sapiens, UniProt Q96SW2+Q9UKT9); test: Western-blot assay, substrate protein in hPBMCs; assay type: cell-based; conditions: hPBMC cells, 24 hours, tested at 50 nM and 500 nM, table does not say which
T7 construct: endogenous in cells; host or cells: human PBMCs (Milecell Biotechnologies)
Procedure: as §2, §3, §4, §5, §6, §7, §8, §9

T7 sequence (Q9UKT9 whole entry): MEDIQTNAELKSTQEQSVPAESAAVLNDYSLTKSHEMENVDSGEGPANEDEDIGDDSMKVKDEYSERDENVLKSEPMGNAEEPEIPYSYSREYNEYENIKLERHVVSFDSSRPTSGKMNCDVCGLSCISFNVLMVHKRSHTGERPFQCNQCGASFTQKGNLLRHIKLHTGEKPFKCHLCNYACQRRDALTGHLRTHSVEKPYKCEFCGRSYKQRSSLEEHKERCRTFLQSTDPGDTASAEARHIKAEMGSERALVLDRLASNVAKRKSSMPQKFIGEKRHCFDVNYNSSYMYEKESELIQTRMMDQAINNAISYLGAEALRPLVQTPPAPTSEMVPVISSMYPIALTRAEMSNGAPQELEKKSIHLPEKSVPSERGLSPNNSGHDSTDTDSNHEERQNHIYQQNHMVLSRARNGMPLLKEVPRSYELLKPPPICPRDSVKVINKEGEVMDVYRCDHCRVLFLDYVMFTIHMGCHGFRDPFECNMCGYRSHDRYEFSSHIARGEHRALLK
T7 sequence (Q96SW2 whole entry): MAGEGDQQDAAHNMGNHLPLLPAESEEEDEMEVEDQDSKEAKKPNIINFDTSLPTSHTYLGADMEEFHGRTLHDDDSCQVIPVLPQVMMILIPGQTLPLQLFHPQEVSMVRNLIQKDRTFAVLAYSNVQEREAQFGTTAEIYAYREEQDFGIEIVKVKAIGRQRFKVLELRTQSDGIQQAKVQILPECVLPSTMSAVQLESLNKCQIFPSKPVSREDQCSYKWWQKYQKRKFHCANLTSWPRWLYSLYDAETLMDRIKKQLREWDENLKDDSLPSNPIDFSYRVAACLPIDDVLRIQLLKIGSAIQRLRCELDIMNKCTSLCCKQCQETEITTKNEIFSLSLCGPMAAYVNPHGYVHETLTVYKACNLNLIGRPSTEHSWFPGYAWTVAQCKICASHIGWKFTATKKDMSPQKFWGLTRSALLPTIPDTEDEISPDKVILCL
T7 sequence (Q16531 whole entry partner): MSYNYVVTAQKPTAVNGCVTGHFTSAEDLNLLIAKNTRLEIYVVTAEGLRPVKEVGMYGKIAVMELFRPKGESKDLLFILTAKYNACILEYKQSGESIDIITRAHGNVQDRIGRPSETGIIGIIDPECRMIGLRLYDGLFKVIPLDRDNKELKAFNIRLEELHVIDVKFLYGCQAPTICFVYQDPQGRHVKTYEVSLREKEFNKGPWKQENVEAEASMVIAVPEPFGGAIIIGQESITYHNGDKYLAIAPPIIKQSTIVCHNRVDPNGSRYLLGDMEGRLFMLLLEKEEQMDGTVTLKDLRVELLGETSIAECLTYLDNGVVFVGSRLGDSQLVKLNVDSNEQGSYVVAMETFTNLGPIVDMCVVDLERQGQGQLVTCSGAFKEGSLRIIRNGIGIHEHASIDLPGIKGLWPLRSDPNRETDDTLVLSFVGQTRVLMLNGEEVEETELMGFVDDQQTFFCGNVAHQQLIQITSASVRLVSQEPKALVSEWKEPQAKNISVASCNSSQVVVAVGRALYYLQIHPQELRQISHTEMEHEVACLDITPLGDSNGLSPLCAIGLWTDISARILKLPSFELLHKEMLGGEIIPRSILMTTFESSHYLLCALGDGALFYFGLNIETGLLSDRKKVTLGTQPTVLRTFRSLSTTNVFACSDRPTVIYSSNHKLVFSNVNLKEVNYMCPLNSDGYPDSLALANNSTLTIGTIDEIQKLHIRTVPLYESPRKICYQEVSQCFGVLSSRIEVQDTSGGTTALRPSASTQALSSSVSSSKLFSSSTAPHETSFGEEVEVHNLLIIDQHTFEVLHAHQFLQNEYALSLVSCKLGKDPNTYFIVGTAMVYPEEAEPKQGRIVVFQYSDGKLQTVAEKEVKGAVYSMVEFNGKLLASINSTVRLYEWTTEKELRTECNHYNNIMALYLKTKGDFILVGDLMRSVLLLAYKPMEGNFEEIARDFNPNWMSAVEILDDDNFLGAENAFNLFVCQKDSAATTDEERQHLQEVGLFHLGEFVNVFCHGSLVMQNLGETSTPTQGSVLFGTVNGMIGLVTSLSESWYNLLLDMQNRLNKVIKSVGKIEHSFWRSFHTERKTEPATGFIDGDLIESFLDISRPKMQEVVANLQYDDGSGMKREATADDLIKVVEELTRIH
T1 sequence (P30291 whole entry): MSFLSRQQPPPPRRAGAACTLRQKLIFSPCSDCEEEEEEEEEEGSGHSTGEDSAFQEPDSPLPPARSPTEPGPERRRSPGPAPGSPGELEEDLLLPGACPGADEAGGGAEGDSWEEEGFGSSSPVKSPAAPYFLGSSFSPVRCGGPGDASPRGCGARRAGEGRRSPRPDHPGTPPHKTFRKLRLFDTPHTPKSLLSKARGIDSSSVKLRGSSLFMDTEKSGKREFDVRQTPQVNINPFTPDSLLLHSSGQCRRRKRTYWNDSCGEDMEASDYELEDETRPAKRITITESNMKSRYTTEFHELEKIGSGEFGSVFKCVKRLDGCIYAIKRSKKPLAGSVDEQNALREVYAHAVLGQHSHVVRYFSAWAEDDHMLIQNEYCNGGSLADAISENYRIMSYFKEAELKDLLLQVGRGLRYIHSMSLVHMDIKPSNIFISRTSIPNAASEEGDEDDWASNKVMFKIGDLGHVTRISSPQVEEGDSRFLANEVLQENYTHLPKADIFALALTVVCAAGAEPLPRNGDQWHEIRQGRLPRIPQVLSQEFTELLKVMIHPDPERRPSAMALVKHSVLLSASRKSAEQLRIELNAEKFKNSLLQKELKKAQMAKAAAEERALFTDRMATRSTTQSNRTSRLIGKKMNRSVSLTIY
T1 sequence (Q96SW2 whole entry): as the sequence (Q96SW2 whole entry) above
T1 sequence (Q16531 whole entry partner): as the sequence (Q16531 whole entry partner) above
T4 sequence (Q13422 whole entry): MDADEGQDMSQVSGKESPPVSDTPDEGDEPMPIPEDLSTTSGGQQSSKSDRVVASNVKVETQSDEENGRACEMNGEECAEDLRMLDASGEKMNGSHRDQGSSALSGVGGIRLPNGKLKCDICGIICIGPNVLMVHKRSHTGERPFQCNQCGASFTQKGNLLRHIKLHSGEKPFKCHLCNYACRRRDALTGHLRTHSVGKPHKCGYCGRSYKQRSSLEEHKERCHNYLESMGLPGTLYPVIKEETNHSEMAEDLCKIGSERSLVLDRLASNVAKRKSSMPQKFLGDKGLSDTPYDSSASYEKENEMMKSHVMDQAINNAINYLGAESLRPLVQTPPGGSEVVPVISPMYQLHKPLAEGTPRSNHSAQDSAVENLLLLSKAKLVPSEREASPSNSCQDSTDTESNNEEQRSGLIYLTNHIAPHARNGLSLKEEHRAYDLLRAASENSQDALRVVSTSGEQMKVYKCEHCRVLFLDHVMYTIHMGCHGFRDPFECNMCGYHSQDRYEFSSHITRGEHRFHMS
T4 sequence (Q96SW2 whole entry): as the sequence (Q96SW2 whole entry) above
T4 sequence (Q16531 whole entry partner): as the sequence (Q16531 whole entry partner) above
T6 sequence (Q9UKS7 whole entry): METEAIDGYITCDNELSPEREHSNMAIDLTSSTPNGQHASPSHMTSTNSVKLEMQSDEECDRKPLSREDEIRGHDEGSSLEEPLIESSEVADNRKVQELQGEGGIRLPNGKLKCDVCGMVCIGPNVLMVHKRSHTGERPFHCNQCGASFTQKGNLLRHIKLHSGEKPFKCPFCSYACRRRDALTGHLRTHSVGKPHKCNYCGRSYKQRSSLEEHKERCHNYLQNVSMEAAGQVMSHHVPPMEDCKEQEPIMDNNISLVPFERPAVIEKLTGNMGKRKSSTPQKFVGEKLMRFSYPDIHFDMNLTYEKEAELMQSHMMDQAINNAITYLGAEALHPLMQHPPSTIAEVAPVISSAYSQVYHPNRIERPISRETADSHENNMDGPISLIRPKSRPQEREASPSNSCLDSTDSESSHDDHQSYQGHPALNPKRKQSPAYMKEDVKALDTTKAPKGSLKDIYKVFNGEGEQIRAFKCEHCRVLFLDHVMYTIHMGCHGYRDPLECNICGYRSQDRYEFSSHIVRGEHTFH
T6 sequence (Q96SW2 whole entry): as the sequence (Q96SW2 whole entry) above
T6 sequence (Q16531 whole entry partner): as the sequence (Q16531 whole entry partner) above
T3 sequence (P48729 whole entry): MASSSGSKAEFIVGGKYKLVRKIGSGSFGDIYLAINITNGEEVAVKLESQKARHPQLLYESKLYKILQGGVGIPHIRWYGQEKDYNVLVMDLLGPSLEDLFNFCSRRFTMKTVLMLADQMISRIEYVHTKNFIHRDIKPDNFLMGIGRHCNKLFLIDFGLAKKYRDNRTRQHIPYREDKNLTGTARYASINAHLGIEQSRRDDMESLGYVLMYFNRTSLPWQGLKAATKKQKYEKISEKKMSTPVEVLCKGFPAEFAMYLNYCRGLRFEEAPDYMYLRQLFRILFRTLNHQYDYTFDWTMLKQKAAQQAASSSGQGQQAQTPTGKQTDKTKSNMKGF
T3 sequence (Q96SW2 whole entry): as the sequence (Q96SW2 whole entry) above
T3 sequence (Q16531 whole entry partner): as the sequence (Q16531 whole entry partner) above
T5 sequence (Q96SW2 whole entry): as the sequence (Q96SW2 whole entry) above

Structure (SMILES): CC1(C)CCC(CN2CC(Sc3ccc4c(c3)CN(C3CCC(=O)NC3=O)C4=O)C2)=C(c2ccc(Cl)cc2)C1 (stereo not shown) [GT-03464, 3-(5-((1-((4′-chloro-5,5-dimethyl-3,4,5,6-tetrahydro-[1,1′-biphenyl]-2-yl)methyl)azetidin-3-yl)thio)-1-oxoisoindolin-2-yl)piperidine-2,6-dione]
- substrate protein remaining % (Wee1): A (0%≤ substrate protein remaining % ≤80%)
- substrate protein remaining % (GSPT1): A (0%≤ substrate protein remaining % ≤80%)
- substrate protein remaining % (CK1α): A (0%≤ substrate protein remaining % ≤80%)
- substrate protein remaining % (IKZF1): A (0%≤ substrate protein remaining % ≤80%)
- IC50 [1]: < 500 nM

Structure (SMILES): O=C1CCC(N2Cc3cc(SC4CNC4)ccc3C2=O)C(=O)N1 (stereo not shown) [GT-03613, 3-(5-(azetidin-3-ylthio)-1-oxoisoindolin-2-yl)piperidine-2,6-dione]
- substrate protein remaining % (Wee1): A (0%≤ substrate protein remaining % ≤80%)
- substrate protein remaining % (IKZF2): A (0%≤ substrate protein remaining % ≤80%)
- substrate protein remaining % (GSPT1): A (0%≤ substrate protein remaining % ≤80%)
- substrate protein remaining % (CK1α): A (0%≤ substrate protein remaining % ≤80%)
- substrate protein remaining % (IKZF1): A (0%≤ substrate protein remaining % ≤80%)
- IC50 [1]: < 500 nM

Structure (SMILES): O=C1CCC(N2Cc3cc(SC4CCNCC4)ccc3C2=O)C(=O)N1 (stereo not shown) [GT-03616, 3-(1-oxo-5-(piperidin-4-ylthio)isoindolin-2-yl)piperidine-2,6-dione]
- substrate protein remaining % (IKZF2): A (0%≤ substrate protein remaining % ≤80%)
- substrate protein remaining % (GSPT1): A (0%≤ substrate protein remaining % ≤80%)
- substrate protein remaining % (CK1α): A (0%≤ substrate protein remaining % ≤80%)
- substrate protein remaining % (IKZF1): A (0%≤ substrate protein remaining % ≤80%)
- IC50 [1]: 1000 to 1900 nM

Structure (SMILES): O=C1CCC(N2Cc3cc(SC4CCN(C(=O)c5ccccc5-c5ccc(Cl)cc5)C4)ccc3C2=O)C(=O)N1 (stereo not shown) [GT-06181, 3-(5-((1-(4′-chloro-[1,1′-biphenyl]-2-carbonyl)pyrrolidin-3-yl)thio)-1-oxoisoindolin-2-yl)piperidine-2,6-dione]
- substrate protein remaining % (Wee1): A (0%≤ substrate protein remaining % ≤80%)
- substrate protein remaining % (GSPT1): A (0%≤ substrate protein remaining % ≤80%)
- substrate protein remaining % (IKZF3): A (0%≤ substrate protein remaining % ≤80%)
- IC50 [1]: < 500 nM

Structure (SMILES): O=C1CCC(N2Cc3cc(SC4CCN(C(c5ccccc5)c5ccccc5)CC4)ccc3C2=O)C(=O)N1 (stereo not shown) [GT-06184, 3-(5-((1-benzhydrylpiperidin-4-yl)thio)-1-oxoisoindolin-2-yl)piperidine-2,6-dione]
- substrate protein remaining % (GSPT1): A (0%≤ substrate protein remaining % ≤80%)
- substrate protein remaining % (IKZF3): A (0%≤ substrate protein remaining % ≤80%)
- IC50 [1]: 500 to 1000 nM

Structure (SMILES): O=C1CCC(N2Cc3cc(OC4CN(C(c5cccc(F)c5)c5cccc(F)c5)C4)ccc3C2=O)C(=O)N1 (stereo not shown) [GT-06352, 3-(5-((1-(bis(3-fluorophenyl)methyl)azetidin-3-yl)oxy)-1-oxoisoindolin-2-yl)piperidine-2,6-dione]
- substrate protein remaining % (GSPT1): A (0%≤ substrate protein remaining % ≤80%)
- substrate protein remaining % (CK1α): A (0%≤ substrate protein remaining % ≤80%)
- substrate protein remaining % (IKZF1): A (0%≤ substrate protein remaining % ≤80%)
- IC50 [1]: 500 to 1000 nM

Structure (SMILES): O=C1CCC(N2Cc3cc(SC4CN(C(c5ccc(F)cc5)c5ccc(F)cc5)C4)ccc3C2=O)C(=O)N1 (stereo not shown) [GT-06503, 3-(5-((1-(bis(4-fluorophenyl)methyl)azetidin-3-yl)thio)-1-oxoisoindolin-2-yl)piperidine-2,6-dione]
- substrate protein remaining % (Wee1): A (0%≤ substrate protein remaining % ≤80%)
- substrate protein remaining % (GSPT1): A (0%≤ substrate protein remaining % ≤80%)
- substrate protein remaining % (CK1α): A (0%≤ substrate protein remaining % ≤80%)
- substrate protein remaining % (IKZF1): A (0%≤ substrate protein remaining % ≤80%)
- IC50 [1]: 500 to 1000 nM

Structure (SMILES): O=C1CCC(N2Cc3cc(OC4CN(CC5=C(c6ccc(F)cc6)CCOC5)C4)ccc3C2=O)C(=O)N1 (stereo not shown) [GT-06560, 3-(5-((1-((4-(4-fluorophenyl)-5,6-dihydro-2H-pyran-3-yl)methyl)azetidin-3-yl)oxy)-1-oxoisoindolin-2-yl)piperidine-2,6-dione]
- substrate protein remaining % (Wee1): A (0%≤ substrate protein remaining % ≤80%)
- substrate protein remaining % (IKZF3): A (0%≤ substrate protein remaining % ≤80%)
- IC50 [1]: 500 to 1000 nM

Structure (SMILES): O=C1CCC(N2Cc3cc(OC4CN(C(c5ccccc5)c5cccnc5)C4)ccc3C2=O)C(=O)N1 (stereo not shown) [GT-06760, 3-(1-oxo-5-((1-(phenyl(pyridin-3-yl)methyl)azetidin-3-yl)oxy)isoindolin-2-yl)piperidine-2,6-dione]
- substrate protein remaining % (Wee1): A (0%≤ substrate protein remaining % ≤80%)
- substrate protein remaining % (IKZF2): A (0%≤ substrate protein remaining % ≤80%)
- substrate protein remaining % (IKZF1): A (0%≤ substrate protein remaining % ≤80%)
- IC50 [1]: < 500 nM

Structure (SMILES): O=C1CCC(N2Cc3cc(SC4CN(Cc5ccc(-c6ccncc6)nc5)C4)ccc3C2=O)C(=O)N1 (stereo not shown) [GT-06808, 3-(5-((1-([2,4′-bipyridin]-5-ylmethyl)azetidin-3-yl)thio)-1-oxoisoindolin-2-yl)piperidine-2,6-dione]
- substrate protein remaining % (Wee1): A (0%≤ substrate protein remaining % ≤80%)
- substrate protein remaining % (IKZF2): A (0%≤ substrate protein remaining % ≤80%)
- substrate protein remaining % (CK1α): A (0%≤ substrate protein remaining % ≤80%)
- substrate protein remaining % (IKZF1): A (0%≤ substrate protein remaining % ≤80%)
- IC50 [1]: 500 to 1000 nM

Structure (SMILES): CC1(C)CCC(CN2CC(Sc3cccc4c3C(=O)N(C3CCC(=O)NC3=O)C4)C2)=C(c2ccc(Cl)cc2)C1 (stereo not shown) [GT-06812, 3-(7-((1-((4′-chloro-5,5-dimethyl-3,4,5,6-tetrahydro-[1,1′-biphenyl]-2-yl)methyl)azetidin-3-yl)thio)-1-oxoisoindolin-2-yl)piperidine-2,6-dione]
- substrate protein remaining % (Wee1): A (0%≤ substrate protein remaining % ≤80%)
- substrate protein remaining % (GSPT1): A (0%≤ substrate protein remaining % ≤80%)
- substrate protein remaining % (IKZF1): A (0%≤ substrate protein remaining % ≤80%)
- IC50 [1]: 1000 to 1900 nM

Structure (SMILES): O=C1CCC(N2Cc3cc(OC4CC5CN(C(=O)c6ccccc6-c6ccc(Cl)cc6)CC5C4)ccc3C2=O)C(=O)N1 (stereo not shown) [GT-06954, 3-(5-((2-(4′-chloro-[1,1′-biphenyl]-2-carbonyl)octahydro-cyclopenta[c]pyrrol-5-yl)oxy)-1-oxoisoindolin-2-yl)piperidine-2,6-dione]
- substrate protein remaining % (Wee1): A (0%≤ substrate protein remaining % ≤80%)
- substrate protein remaining % (IKZF2): A (0%≤ substrate protein remaining % ≤80%)
- substrate protein remaining % (GSPT1): A (0%≤ substrate protein remaining % ≤80%)
- substrate protein remaining % (IKZF1): A (0%≤ substrate protein remaining % ≤80%)
- IC50 [1]: < 500 nM

Structure (SMILES): O=C1CCC(N2Cc3cccc(SC4CNC4)c3C2=O)C(=O)N1 (stereo not shown) [GT-06994, 3-(7-(azetidin-3-ylthio)-1-oxoisoindolin-2-yl)piperidine-2,6-dione]
- substrate protein remaining % (IKZF2): A (0%≤ substrate protein remaining % ≤80%)
- substrate protein remaining % (IKZF1): A (0%≤ substrate protein remaining % ≤80%)

Structure (SMILES): CC1(C)CCC(C(=O)N2C[C@H]3CC(Sc4ccc5c(c4)CN(C4CCC(=O)NC4=O)C5=O)C[C@@H]3C2)=C(c2ccc(Cl)cc2)C1 (stereo partly drawn) [GT-07022, 3-(5-(((3aS,6aS)-2-(4′-chloro-5,5-dimethyl-3,4,5,6-tetrahydro-[1,1′-biphenyl]-2-carbonyl)octahydro-cyclopenta[c]pyrrol-5-yl)thio)-1-oxoisoindolin-2-yl)piperidine-2,6-dione]
- substrate protein remaining % (CK1α): A (0%≤ substrate protein remaining % ≤80%)
- substrate protein remaining % (IKZF3): A (0%≤ substrate protein remaining % ≤80%)
- IC50 [1]: 500 to 1000 nM
